Assay results from US20210298306A1, “PESTICIDALLY ACTIVE AZOLE-AMIDE COMPOUNDS” (SYNGENTA PARTICIPATIONS AG, priority 2018, published 2021).

Key:
Assay type in all cases: in vivo
[1] = system: Diabrotica balteata; assay: Example B1: Diabrotica balteata (corn root worm), maize sprouts sprayed, L2 larvae; details: 96 h, application rate 200 ppm, 4 days after infestation, read-out: effect in at least one of the two categories (mortality or growth inhibition)
Experimental: Example B1: Diabrotica Balteata (Corn Root Worm)
Maize sprouts placed onto an agar layer in 24-well microtiter plates were treated with aqueous test solutions prepared from 10,000 ppm DMSO stock solutions by spraying. After drying, the plates were infested with L2 larvae (6 to 10 per well). The samples were assessed for mortality and growth inhibition in comparison to untreated samples 4 days after infestation.
(§1) The following compounds gave an effect of at least 80% in at least one of the two categories (mortality or growth inhibition) at an application rate of 200 ppm: […]

[2] = system: Euschistus heros; assay: Example B2: Euschistus heros (neotropical brown stink bug), soybean leaves sprayed, N2 nymphs; details: 120 h, application rate 200 ppm, 5 days after infestation, read-out: effect in at least one of the two categories (mortality or growth inhibition)
Experimental: Example B2: Euschistus heros (Neotropical Brown Stink Bug)
Soybean leaves on agar in 24-well microtiter plates were sprayed with aqueous test solutions prepared from 10,000 ppm DMSO stock solutions. After drying the leaves were infested with N2 nymphs. The samples were assessed for mortality and growth inhibition in comparison to untreated samples 5 days after infestation.
as §1

[3] = system: Plutella xylostella; assay: Example B4: Plutella xylostella (diamond back moth), artificial diet, 24-well, eggs; details: 192 h, application rate 200 ppm, 8 days after infestation, read-out: effect in at least one of the two categories (mortality or growth inhibition)
Experimental: Example B4: Plutella xylostella (Diamond Back Moth)
24-well microtiter plates with artificial diet were treated with aqueous test solutions prepared from 10,000 ppm DMSO stock solutions by pipetting. After drying, Plutella eggs were pipetted through a plastic stencil onto a gel blotting paper and the plate was closed with it. The samples were assessed for mortality and growth inhibition in comparison to untreated samples 8 days after infestation.
as §1

[4] = system: Myzus persicae; assay: Example B5: Myzus persicae (green peach aphid), feeding/contact activity, sunflower leaf discs; details: foliar, 144 h, application rate 200 ppm, 6 days after infestation, Myzus persicae mixed ages
Experimental: Example B5: Myzus persicae (Green Peach Aphid):Feeding/Contact Activity
(§2) Sunflower leaf discs were placed onto agar in a 24-well microtiter plate and sprayed with aqueous test solutions prepared from 10,000 ppm DMSO stock solutions. After drying, the leaf discs were infested with an aphid population of mixed ages. The samples were assessed for mortality 6 days after infestation.

[5] = system: Myzus persicae; assay: Example B6: Myzus persicae (green peach aphid), intrinsic activity, sucrose solution, 24-well; details: 120 h, test rate 12 ppm, 5 days after infestation
Source text: Example B6: Myzus persicae (Green Peach Aphid). Intrinsic Activity
Test compounds prepared from 10,000 ppm DMSO stock solutions were applied by pipette into 24-well microtiter plates and mixed with sucrose solution. The plates were closed with a stretched Parafilm. A plastic stencil with 24 holes was placed onto the plate and infested pea seedlings were placed directly on the Parafilm. The infested plate was closed with a gel blotting paper and another plastic stencil and then turned upside down. The samples were assessed for mortality 5 days after infestation.

[6] = system: Spodoptera littoralis; assay: Example B7: Spodoptera littoralis (Egyptian cotton leaf worm), cotton leaf discs sprayed, L1 larvae; details: foliar, 72 h, application rate 200 ppm, 3 days after infestation, read-out: control in at least one of the categories (mortality, anti-feedant effect, or growth inhibition)
Experimental: Example B7: Spodoptera littoralis (Egyptian Cotton Leaf Worm)
Cotton leaf discs were placed onto agar in 24-well microtiter plates and sprayed with aqueous test solutions prepared from 10,000 ppm DMSO stock solutions. After drying the leaf discs were infested with five L1 larvae. The samples were assessed for mortality, anti-feeding effect, and growth inhibition in comparison to untreated samples 3 days after infestation. Control of Spodoptera littoralis by a test sample is given when at least one of the categories mortality, anti-feedant effect, and growth inhibition is higher than the untreated sample.

[7] = system: Spodoptera littoralis; assay: Example B8: Spodoptera littoralis (Egyptian cotton leaf worm), uptake by lettuce roots from agar, eggs; details: 144 h, test rate 12.5 ppm, 6 days after infestation, lettuce root uptake, read-out: effect in at least one of the three categories (mortality, anti-feeding, or growth inhibition)
Source text: Example B8: Spodoptera littoralis (Egyptian Cotton Leaf Worm)
Test compounds were applied by pipette from 10,000 ppm DMSO stock solutions into 24-well plates and mixed with agar. Lettuce seeds were placed onto the agar and the multi well plate was closed by another plate which contained also agar. After 7 days the compound was absorbed by the roots and the lettuce grew into the lid plate. The lettuce leaves were then cut off into the lid plate. Spodoptera eggs were pipetted through a plastic stencil onto a humid gel blotting paper and the lid plate was closed with it. The samples were assessed for mortality, anti-feedant effect and growth inhibition in comparison to untreated samples 6 days after infestation.
The following compounds gave an effect of at least 80% in at least one of the three categories (mortality, anti-feeding, or growth inhibition) at a test rate of 12.5 ppm: […]

[8] = system: Thrips tabaci; assay: Example B9: Thrips tabaci (onion thrips), feeding/contact activity, sunflower leaf discs; details: foliar, 144 h; application rate 200 ppm; 6 days after infestation; Thrips tabaci mixed ages
Experimental: Example B9: Thrips tabaci (Onion Thrips) Feeding/Contact Activity
as §2, with “on” for “onto”, “in” for “in a”, “plates” for “plate”, “drying” for “drying,”, “a thrips” for “an aphid”

[9] = system: Chilo suppressalis; assay: Example B3: Chilo suppressalis (striped rice stemborer), artificial diet, L2 larvae; details: 144 h, application rate 200 ppm, 6 days after infestation, read-out: control in at least one of the categories (mortality, anti-feedant effect, or growth inhibition)
Experimental: Example B3: Chilo suppressalis (Striped Rice Stemborer)
24-well microtiter plates with artificial diet were treated with aqueous test solutions prepared from 10,000 ppm DMSO stock solutions by pipetting. After drying, the plates were infested with L2 larvae (6-8 per well). The samples were assessed for mortality, anti-feeding effect, and growth inhibition in comparison to untreated samples 6 days after infestation. Control of Chilo suppressalis by a test sample is given when at least one of the categories mortality, anti-feedant effect, and growth inhibition is higher than the untreated sample.

[10] = system: Myzus persicae; assay: Example B10: Myzus persicae (green peach aphid), sucrose solution, 96-well; details: 120 h, application rate 50 ppm, 5 days after infestation
Source text: Example B10: Myzus persicae (Green Peach Aphid)
Test compounds prepared from 10,000 ppm DMSO stock solutions were applied by a liquid handling robot into 96-well microtiter plates and mixed with a sucrose solution. Parafilm was stretched over the 96-well microtiter plate and a plastic stencil with 96 holes was placed onto the plate. Aphids were sieved into the wells directly onto the Parafilm. The infested plates were closed with a gel blotting card and a second plastic stencil and then turned upside down. The samples were assessed for mortality 5 days after infestation.

[11] = system: Plutella xylostella; assay: Example B11: Plutella xylostella (diamondback moth), artificial diet, 96-well, eggs; details: 216 h, application rate 500 ppm, 9 days after infestation
Experimental: Example B11: Plutella xylostella (Diamondback Moth)
96-well microtiter plates containing artificial diet were treated with aqueous test solutions, prepared from 10,000 ppm DMSO stock solutions, by a liquid handling robot. After drying, eggs (˜30 per well) were infested onto a netted lid which was suspended above the diet. The eggs hatch and L1 larvae move down to the diet. The samples were assessed for mortality 9 days after infestation.
The following compounds gave an effect of at least 80% average mortality at an application rate of 500 ppm: […]

CC(NC(=O)c1cc(OC(F)F)cc(C(F)(F)F)c1)c1ncnn1-c1ncccn1 (stereo not shown) [P8, 3-(difluoromethoxy)-N-[1-(2-pyrimidin-2-yl-1,2,4-triazol-3-yl)ethyl]-5-(trifluoromethyl) benzamide]
≥ 80%: percent effect (mortality or growth inhibition) at 200 ppm [1] | percent effect (mortality or growth inhibition) at 200 ppm [2] | percent effect (mortality or growth inhibition) at 200 ppm [3] | mortality at 200 ppm [4] | mortality at 12 ppm [5] | percent control (mortality, anti-feedant effect or growth inhibition) at 200 ppm [6] | percent effect (mortality, anti-feeding or growth inhibition) at 12.5 ppm [7] | mortality at 200 ppm [8]

CC(c1ncnn1-c1ncccn1)N(CC1CC1)C(=O)c1cc(SC(F)(F)F)cc(C(F)(F)F)c1 (stereo not shown) [P5, N-(cyclopropylmethyl)-N-[1-(2-pyrimidin-2-yl-1,2,4-triazol-3-yl)ethyl]-3-(trifluoromethyl)-5-(trifluoromethylsulfanyl) benzamide]
≥ 80%: percent effect (mortality or growth inhibition) at 200 ppm [1] | percent effect (mortality or growth inhibition) at 200 ppm [2] | percent control (mortality, anti-feedant effect or growth inhibition) at 200 ppm [9] | percent effect (mortality or growth inhibition) at 200 ppm [3] | mortality at 12 ppm [5] | percent control (mortality, anti-feedant effect or growth inhibition) at 200 ppm [6] | percent effect (mortality, anti-feeding or growth inhibition) at 12.5 ppm [7] | mortality at 200 ppm [8]

CC(NC(=O)c1cc(OC(F)F)cc(C(F)(F)F)c1)c1ncnn1-c1ccccn1 (stereo not shown) [P11, 3-(difluoromethoxy)-N-[1-[2-(2-pyridyl)-1,2,4-triazol-3-yl]ethyl]-5-(trifluoromethyl) benzamide]
≥ 80%: percent effect (mortality or growth inhibition) at 200 ppm [1] | percent effect (mortality or growth inhibition) at 200 ppm [3] | percent control (mortality, anti-feedant effect or growth inhibition) at 200 ppm [6] | percent effect (mortality, anti-feeding or growth inhibition) at 12.5 ppm [7]

CC(c1ncnn1-c1ncccn1)N(CC1CC1)C(=O)c1cc(OC(F)(F)C(F)F)cc(C(F)(F)F)c1 (stereo not shown) [P3, N-(cyclopropylmethyl)-N-[1-(2-pyrimidin-2-yl-1,2,4-triazol-3-yl)ethyl]-3-(1,1,2,2-tetrafluoroethoxy)-5-(trifluoromethyl)benzamide]
≥ 80%: percent effect (mortality or growth inhibition) at 200 ppm [1] | percent effect (mortality or growth inhibition) at 200 ppm [2] | percent effect (mortality or growth inhibition) at 200 ppm [3] | mortality at 12 ppm [5] | percent control (mortality, anti-feedant effect or growth inhibition) at 200 ppm [6] | percent effect (mortality, anti-feeding or growth inhibition) at 12.5 ppm [7] | mortality at 200 ppm [8]

CC(NC(=O)c1cc(OC(F)F)cc(C(F)(F)F)c1)c1ncnn1-c1ccc(F)cn1 (stereo not shown) [P15, 3-(difluoromethoxy)-N-[1-[2-(5-fluoro-2-pyridyl)-1,2,4-triazol-3-yl]ethyl]-5-(trifluoromethyl) benzamide]
≥ 80%: percent effect (mortality or growth inhibition) at 200 ppm [1] | percent effect (mortality or growth inhibition) at 200 ppm [2] | percent effect (mortality or growth inhibition) at 200 ppm [3] | mortality at 12 ppm [5] | percent control (mortality, anti-feedant effect or growth inhibition) at 200 ppm [6] | percent effect (mortality, anti-feeding or growth inhibition) at 12.5 ppm [7]

CC(c1ncnn1-c1ncccn1)N(CC1CC1)C(=O)c1cc(C(F)F)cc(C(F)(F)F)c1 (stereo not shown) [P1, N-(cyclopropylmethyl)-3-(difluoromethyl)-N-[1-(2-pyrimidin-2-yl-1,2,4-triazol-3-yl)ethyl]-5-(trifluoromethyl) benzamide]
≥ 80%: percent effect (mortality or growth inhibition) at 200 ppm [1] | percent effect (mortality or growth inhibition) at 200 ppm [2] | percent effect (mortality or growth inhibition) at 200 ppm [3] | mortality at 12 ppm [5] | percent control (mortality, anti-feedant effect or growth inhibition) at 200 ppm [6] | mortality at 200 ppm [8]

CC(NC(=O)c1cc(OCC(F)(F)F)cc(C(F)(F)F)c1)c1ncnn1-c1ncccc1F (stereo not shown) [P14, N-[1-[2-(3-fluoro-2-pyridyl)-1,2,4-triazol-3-yl]ethyl]-3-(2,2,2-trifluoroethoxy)-5-(trifluoromethyl) benzamide]
≥ 80%: percent effect (mortality or growth inhibition) at 200 ppm [1] | percent effect (mortality or growth inhibition) at 200 ppm [2] | percent effect (mortality or growth inhibition) at 200 ppm [3] | percent control (mortality, anti-feedant effect or growth inhibition) at 200 ppm [6] | mortality at 50 ppm [10] | mortality at 500 ppm [11]

CC(NC(=O)c1cc(OCC(F)(F)F)cc(C(F)(F)F)c1)c1ncnn1-c1ncccn1 (stereo not shown) [P7, N-[1-(2-pyrimidin-2-yl-1,2,4-triazol-3-yl)ethyl]-3-(2,2,2-trifluoroethoxy)-5-(trifluoromethyl) benzamide]
≥ 80%: percent effect (mortality or growth inhibition) at 200 ppm [1] | percent effect (mortality or growth inhibition) at 200 ppm [2] | percent effect (mortality or growth inhibition) at 200 ppm [3] | mortality at 200 ppm [4] | mortality at 12 ppm [5] | percent control (mortality, anti-feedant effect or growth inhibition) at 200 ppm [6]

CC(c1ncnn1-c1ncccn1)N(CC1CC1)C(=O)c1cc(OC(F)F)cc(C(F)(F)F)c1 (stereo not shown) [P2, N-(cyclopropylmethyl)-3-(difluoromethoxy)-N-[1-(2-pyrimidin-2-yl-1,2,4-triazol-3-yl)ethyl]-5-(trifluoromethyl) benzamide]
≥ 80%: percent effect (mortality or growth inhibition) at 200 ppm [1] | percent effect (mortality or growth inhibition) at 200 ppm [2] | percent control (mortality, anti-feedant effect or growth inhibition) at 200 ppm [9] | percent effect (mortality or growth inhibition) at 200 ppm [3] | mortality at 200 ppm [4] | mortality at 12 ppm [5] | percent control (mortality, anti-feedant effect or growth inhibition) at 200 ppm [6] | percent effect (mortality, anti-feeding or growth inhibition) at 12.5 ppm [7] | mortality at 200 ppm [8]

CC(c1ncnn1-c1ncccn1)N(CC1CC1)C(=O)c1cc(OC(F)(F)F)cc(C(F)(F)F)c1 (stereo not shown) [P4, N-(cyclopropylmethyl)-N-[1-(2-pyrimidin-2-yl-1,2,4-triazol-3-yl)ethyl]-3-(trifluoromethoxy)-5-(trifluoromethyl) benzamide]
≥ 80%: percent effect (mortality or growth inhibition) at 200 ppm [1] | percent effect (mortality or growth inhibition) at 200 ppm [2] | percent control (mortality, anti-feedant effect or growth inhibition) at 200 ppm [9] | percent effect (mortality or growth inhibition) at 200 ppm [3] | mortality at 200 ppm [4] | mortality at 12 ppm [5] | percent control (mortality, anti-feedant effect or growth inhibition) at 200 ppm [6]
